One test concerns the target GSK3β (Homo sapiens, UniProt P49841). The test can be described thus: GSK3β kinase assay (Caliper LabChip3000 mobility shift, fluoresceinated peptide substrate). It is filed as biochemical.
The subject of another test is pTau. The test can be described thus: pTau assay (no method described). It is filed as cell-based.
Another test addresses GSK3α (Homo sapiens, UniProt P49840). Kind of test: GSK3α kinase assay (Caliper LabChip3000 mobility shift, fluoresceinated peptide substrate).
Setting [1] is: 250 pM enzyme, 20 uM ATP, 1.5 uM peptide, 20 hours room temperature, first value of cell GSK3β/GSK3α, read-out: GSK3β (nM), IC50.

The structures appear in SMILES notation. Like-named read-outs stand apart in the source and are kept apart here.

Sequence of GSK3α (P49840 whole entry, species assumed): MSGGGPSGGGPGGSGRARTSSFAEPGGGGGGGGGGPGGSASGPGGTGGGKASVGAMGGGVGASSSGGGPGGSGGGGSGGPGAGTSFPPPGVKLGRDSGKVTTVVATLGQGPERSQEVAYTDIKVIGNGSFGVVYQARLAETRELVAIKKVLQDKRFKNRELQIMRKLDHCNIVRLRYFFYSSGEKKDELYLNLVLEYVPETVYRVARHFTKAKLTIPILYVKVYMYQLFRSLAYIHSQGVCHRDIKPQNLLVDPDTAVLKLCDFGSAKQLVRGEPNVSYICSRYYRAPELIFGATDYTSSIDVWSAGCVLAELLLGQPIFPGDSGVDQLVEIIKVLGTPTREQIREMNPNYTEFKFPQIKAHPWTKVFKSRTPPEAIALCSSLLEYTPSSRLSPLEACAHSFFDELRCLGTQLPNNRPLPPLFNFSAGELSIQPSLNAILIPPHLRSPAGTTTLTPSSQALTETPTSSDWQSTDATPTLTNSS
Sequence of GSK3β (P49841 whole entry, species assumed): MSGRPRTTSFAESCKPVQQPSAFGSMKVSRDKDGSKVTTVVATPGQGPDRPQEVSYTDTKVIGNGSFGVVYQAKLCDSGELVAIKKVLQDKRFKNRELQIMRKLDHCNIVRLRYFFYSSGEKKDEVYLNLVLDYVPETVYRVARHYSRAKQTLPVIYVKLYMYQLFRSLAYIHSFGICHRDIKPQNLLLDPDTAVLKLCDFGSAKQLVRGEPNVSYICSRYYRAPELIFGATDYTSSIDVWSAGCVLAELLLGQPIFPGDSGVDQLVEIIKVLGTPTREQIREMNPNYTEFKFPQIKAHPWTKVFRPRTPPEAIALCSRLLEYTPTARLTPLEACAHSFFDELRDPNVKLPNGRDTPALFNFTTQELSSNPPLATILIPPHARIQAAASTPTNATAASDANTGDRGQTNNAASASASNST

For `O=C(Nc1cnc(F)cc1N1CCOCC1)c1ccnc(NC2COC2)n1` [Example 175, N-(6-Fluoro-4-morpholinopyridin-3-yl)-2-(oxetan-3-ylamino)pyrimidine-4-carboxamide], the IC50 on GSK3β (setting [1]) turned out to be 46 nM; in the test on pTau, 2100 nM; at GSK3α it was 27 nM.
The corresponding values for `O=C(Nc1cnccc1OCC(F)(F)F)c1ccnc(NCc2ccccc2F)n1` [Example 129, 2-((2-Fluorobenzyl)amino)-N-(4-(2,2,2-trifluoroethoxy)pyridin-3-yl)pyrimidine-4-carboxamide] are 1.5 nM, 180 nM and 1.8 nM.
The corresponding values for `O=C(Nc1cnccc1OCC(F)(F)F)c1ccnc(NCc2ccccc2)n1` [Example 128, 2-(Benzylamino)-N-(4-(2,2,2-trifluoroethoxy)pyridin-3-yl)pyrimidine-4-carboxamide] are 1.2 nM, 210 nM and 1.3 nM.
The like results for `CCCC1(c2cc(Cl)ncc2NC(=O)c2ccnc(NC3CCOCC3)n2)OCCO1` [Example 167, N-(6-Chloro-4-(2-propyl-1,3-dioxolan-2-yl)pyridin-3-yl)-2-((tetrahydro-2H-pyran-4-yl)amino)pyrimidine-4-carboxamide] were, in that order, 0.43 nM, 69 nM and 0.47 nM.
As for `O=C(Nc1cnccc1-c1ccc(F)cc1)c1ccnc(Nc2ccc(Cl)cc2)n1` [Example 46, 2-((4-Chlorophenyl)amino)-N-(4-(4-fluorophenyl)pyridin-3-yl)pyrimidine-4-carboxamide], the IC50 was 0.5 nM on GSK3β (setting [1]), 77 nM with pTau and 0.44 nM on GSK3α.
The like results for `CC1CC(Nc2nccc(C(=O)Nc3cnccc3OCC(F)(F)F)n2)CC(C)O1` (stereo not drawn) [Example 133, 2-((2,6-Dimethyltetrahydro-2H-pyran-4-yl)amino)-N-(4-(2,2,2-trifluoroethoxy)pyridin-3-yl)pyrimidine-4-carboxamide] were, in that order, 1.9 nM, 380 nM and 38 nM.
With `O=C(Nc1cnccc1-c1ccccc1)c1ccnc(Nc2ccc(C(F)(F)F)cc2F)n1` [Example 25, 2-((2-Fluoro-4-(trifluoromethyl)phenyl)amino)-N-(4-phenylpyridin-3-yl)pyrimidine-4-carboxamide], the IC50 was determined as 3.3 nM on GSK3β, 4800 nM with pTau and 2.2 nM on GSK3α.
As to `O=C(Nc1cncnc1OCC(F)(F)F)c1ccnc(Nc2ccccc2)n1` [Example 76, 2-(Phenylamino)-N-(4-(2,2,2-trifluoroethoxy)pyrimidin-5-yl)pyrimidine-4-carboxamide], the IC50 at GSK3β (setting [1]) came to 1.1 nM; in the test on pTau, 77 nM; on GSK3α it was 0.56 nM.
Consider `O=C(Nc1cnccc1OCC(F)(F)F)c1ccnc(Nc2ccccc2)n1` [Example 51, 2-(Phenylamino)-N-(4-(2,2,2-trifluoroethoxy)pyridin-3-yl)pyrimidine-4-carboxamide], for which the IC50 was 0.25 nM on GSK3β (setting [1]), 13 nM with pTau and 0.16 nM at GSK3α.
Take `Cc1ccc(Nc2nccc(C(=O)Nc3cnccc3-c3ccccc3)n2)cc1` [Example 8, N-(4-Phenylpyridin-3-yl)-2-(p-tolylamino)pyrimidine-4-carboxamide]: the IC50 on GSK3β (setting [1]) came out at 0.31 nM; in the test on pTau it was 71 nM; at GSK3α, 0.22 nM.
The like results for `O=C(Nc1cnccc1-c1ccccc1)c1ccnc(Nc2cncc3c2CCCC3)n1` [Example 91, N-(4-Phenylpyridin-3-yl)-2-((5,6,7,8-tetrahydroisoquinolin-4-yl)amino)pyrimidine-4-carboxamide] were, in that order, 3.5 nM, 270 nM and 2.3 nM.
Turning to `O=C(Nc1cnccc1-c1ccccc1)c1ccnc(Nc2cc(Cl)c(Cl)cc2F)n1` [Example 31, 2-((4,5-Dichloro-2-fluorophenyl)amino)-N-(4-phenylpyridin-3-yl)pyrimidine-4-carboxamide], the IC50 is 0.89 nM at GSK3β (setting [1]), 320 nM in the test with pTau and 0.52 nM at GSK3α.

The values are drawn from US10752609B2, “GSK-3 inhibitors” (priority 2016, dated 2020).
